{"source": "PubChem BioAssay AID1259409", "about": "(Chemical Carcinogenesis Research Information System (CCRIS), 2018)", "origin": "cited, not measured here", "system": "rodent chemically induced tumor inhibition, incidence and multiplicity", "assay": "CCRIS tumor inhibitor studies", "conditions": "Dose [Inhibitor]: 0, Route [Inhibitor]: ORAL"}
{"compound": "Oc1ccccc1O", "values": [{"measurement": "tumour outcome (control, treated, inhibition, significance)", "setting": "Carcinogen: N-BIS(2-HYDROXYPROPYL)NITROSAMINE, 53609-64-6, 0.8% IN DIET FOR 30 WK BEGINNING POST CARCINOGEN TREATMENT (STUDY DURATION: 32 WK), Species: RAT, Strain/Sex: F344/MALE, Target Tissue: Type of Lesion: KIDNEY: PAPILLOMA OR TRANSITIONAL CELL CARCINOMA, Dose [Carcinogen]: 0.1% IN DRINKING WATER FOR 2 WK, Promoter: NONE USED", "result": "10%, 10%, 0%, not significant"}, {"measurement": "tumour outcome (control, treated, inhibition, significance)", "setting": "Carcinogen: N-BIS(2-HYDROXYPROPYL)NITROSAMINE, 53609-64-6, 0.8% IN DIET FOR 30 WK BEGINNING POST CARCINOGEN TREATMENT (STUDY DURATION: 32 WK), Species: RAT, Strain/Sex: F344/MALE, Target Tissue: Type of Lesion: LUNG: ADENOMA, Dose [Carcinogen]: 0.1% IN DRINKING WATER FOR 2 WK, Promoter: NONE USED", "result": "100%, 95%, 5%, not calculated"}, {"measurement": "tumour outcome (control, treated, inhibition, significance)", "setting": "Carcinogen: N-BIS(2-HYDROXYPROPYL)NITROSAMINE, 53609-64-6, 0.8% IN DIET FOR 30 WK BEGINNING POST CARCINOGEN TREATMENT (STUDY DURATION: 32 WK), Species: RAT, Strain/Sex: F344/MALE, Target Tissue: Type of Lesion: LUNG: CARCINOMA, Dose [Carcinogen]: 0.1% IN DRINKING WATER FOR 2 WK, Promoter: NONE USED", "result": "45%, 20%, 56%, not calculated"}, {"measurement": "outcome", "setting": "Carcinogen: N-BIS(2-HYDROXYPROPYL)NITROSAMINE, 53609-64-6, 0.8% IN DIET FOR 30 WK BEGINNING POST CARCINOGEN TREATMENT (STUDY DURATION: 32 WK), Species: RAT, Strain/Sex: F344/MALE, Target Tissue: Type of Lesion: THYROID: ADENOMA, Dose [Carcinogen]: 0.1% IN DRINKING WATER FOR 2 WK, Promoter: NONE USED", "result": "5%, 5%, 0, not significant"}, {"measurement": "tumour outcome (control, treated, inhibition, significance)", "setting": "Carcinogen: N-BIS(2-HYDROXYPROPYL)NITROSAMINE, 53609-64-6, 0.8% IN DIET FOR 30 WK BEGINNING POST CARCINOGEN TREATMENT (STUDY DURATION: 32 WK), Species: RAT, Strain/Sex: F344/MALE, Target Tissue: Type of Lesion: THYROID: CARCINOMA, Dose [Carcinogen]: 0.1% IN DRINKING WATER FOR 2 WK, Promoter: NONE USED", "result": "20%, 5%, 75%, not calculated"}, {"measurement": "tumour outcome (control, treated, inhibition, significance)", "setting": "Carcinogen: N-NITROSOBIS(2-OXOPROPYL)AMINE, 60599-38-4, 0.75% IN DIET FOR 16 WK BEGINNING 2 WK POST CARCINOGEN TREATMENT (STUDY DURATION: 20 WK), Species: HAMSTER, Strain/Sex: SYRIAN/FEMALE, Target Tissue: Type of Lesion: GALL BLADDER: ADENOMA, Dose [Carcinogen]: 70 MG/KG IN SALINE FOLLOWED 2 WK LATER BY SECOND TREATMENT", "result": "9/18 (50%), 7/10 (70%), -40%, not calculated"}, {"measurement": "tumour outcome (control, treated, inhibition, significance)", "setting": "Carcinogen: N-NITROSOBIS(2-OXOPROPYL)AMINE, 60599-38-4, 0.75% IN DIET FOR 16 WK BEGINNING 2 WK POST CARCINOGEN TREATMENT (STUDY DURATION: 20 WK), Species: HAMSTER, Strain/Sex: SYRIAN/FEMALE, Target Tissue: Type of Lesion: LIVER: CHOLANGIOCARCINOMA, Dose [Carcinogen]: 70 MG/KG IN SALINE FOLLOWED 2 WK LATER BY SECOND TREATMENT", "result": "16/18 (89%), 8/10 (80%), 10%, not calculated"}, {"measurement": "tumour outcome (control, treated, inhibition, significance)", "setting": "Carcinogen: N-NITROSOBIS(2-OXOPROPYL)AMINE, 60599-38-4, 0.75% IN DIET FOR 16 WK BEGINNING 2 WK POST CARCINOGEN TREATMENT (STUDY DURATION: 20 WK), Species: HAMSTER, Strain/Sex: SYRIAN/FEMALE, Target Tissue: Type of Lesion: LIVER: NEOPLASTIC NODULE, Dose [Carcinogen]: 70 MG/KG IN SALINE FOLLOWED 2 WK LATER BY SECOND TREATMENT", "result": "18/18 (100%), 10/10 (100%), 0%, not significant"}, {"measurement": "tumour outcome (control, treated, inhibition, significance)", "setting": "Carcinogen: N-NITROSOBIS(2-OXOPROPYL)AMINE, 60599-38-4, 0.75% IN DIET FOR 16 WK BEGINNING 2 WK POST CARCINOGEN TREATMENT (STUDY DURATION: 20 WK), Species: HAMSTER, Strain/Sex: SYRIAN/FEMALE, Target Tissue: Type of Lesion: PANCREAS: ADENOCARCINOMA, Dose [Carcinogen]: 70 MG/KG IN SALINE FOLLOWED 2 WK BY SECOND TREATMENT", "result": "14/18 (78%), 6/10 (60%), 23%, not calculated"}, {"measurement": "tumour outcome (control, treated, inhibition, significance)", "setting": "Carcinogen: N-NITROSOBIS(2-OXOPROPYL)AMINE, 60599-38-4, 1.5% IN DIET FOR 16 WK BEGINNING 2 WK POST CARCINOGEN TREATMENT (STUDY DURATION: 20 WK), Species: HAMSTER, Strain/Sex: SYRIAN/FEMALE, Target Tissue: Type of Lesion: GALL BLADDER: ADENOMA, Dose [Carcinogen]: 70 MG/KG IN SALINE FOLLOWED 2 WK LATER BY SECOND TREATMENT", "result": "9/18 (50%), 10/17 (59%), -18%, not calculated"}, {"measurement": "tumour outcome (control, treated, inhibition, significance)", "setting": "Carcinogen: N-NITROSOBIS(2-OXOPROPYL)AMINE, 60599-38-4, 1.5% IN DIET FOR 16 WK BEGINNING 2 WK POST CARCINOGEN TREATMENT (STUDY DURATION: 20 WK), Species: HAMSTER, Strain/Sex: SYRIAN/FEMALE, Target Tissue: Type of Lesion: GALL BLADDER: CARCINOMA, Dose [Carcinogen]: 70 MG/KG IN SALINE FOLLOWED 2 WK LATER BY SECOND TREATMENT", "result": "1/18 (6%), 2/17 (12%), -100%, not calculated"}, {"measurement": "tumour outcome (control, treated, inhibition, significance)", "setting": "Carcinogen: N-NITROSOBIS(2-OXOPROPYL)AMINE, 60599-38-4, 1.5% IN DIET FOR 16 WK BEGINNING 2 WK POST CARCINOGEN TREATMENT (STUDY DURATION: 20 WK), Species: HAMSTER, Strain/Sex: SYRIAN/FEMALE, Target Tissue: Type of Lesion: LIVER: CHOLANGIOCARCINOMA, Dose [Carcinogen]: 70 MG/KG IN SALINE FOLLOWED 2 WK LATER BY SECOND TREATMENT", "result": "16/18 (89%), 11/17 (65%), 27%, not calculated"}, {"measurement": "tumour outcome (control, treated, inhibition, significance)", "setting": "Carcinogen: N-NITROSOBIS(2-OXOPROPYL)AMINE, 60599-38-4, 1.5% IN DIET FOR 16 WK BEGINNING 2 WK POST CARCINOGEN TREATMENT (STUDY DURATION: 20 WK), Species: HAMSTER, Strain/Sex: SYRIAN/FEMALE, Target Tissue: Type of Lesion: LIVER: NEOPLASTIC NODULE, Dose [Carcinogen]: 70 MG/KG IN SALINE FOLLOWED 2 WK LATER BY SECOND TREATMENT", "result": "100%, 100%, 0%, not significant"}, {"measurement": "tumour outcome (control, treated, inhibition, significance)", "setting": "Carcinogen: N-NITROSOBIS(2-OXOPROPYL)AMINE, 60599-38-4, 1.5% IN DIET FOR 16 WK BEGINNING 2 WK POST CARCINOGEN TREATMENT (STUDY DURATION: 20 WK), Species: HAMSTER, Strain/Sex: SYRIAN/FEMALE, Target Tissue: Type of Lesion: PANCREAS: ADENOCARCINOMA, Dose [Carcinogen]: 70 MG/KG IN SALINE FOLLOWED 2 WK LATER BY SECOND TREATMENT", "result": "14/18 (78%), 13/17 (76%), 3%, not calculated"}]}
